Experimental data as given in ChEMBL document CHEMBL4418268, “Nitrogen-containing heterocyclic compound” (2018).

Test system: HUVEC
Test: Inhibition of TNF-alpha-induced CXCL10 production in HUVEC cells at 0.1 uM incubated for 1 hr followed by TNF-alpha addition and measured after 72 hrs by ELISA relative to control
Type: functional
Details: Homo sapiens

Q: Which inhibition at 0.1 µM does the source give for `CCn1c(=O)cc(C2CC2)c2cc(-n3c(=O)cc(C)n3-c3ccccc3)ccc21` here?
A: ≥ 50%

Q: For `CCn1c(=O)cc(N2CCOCC2)c2cc(-n3c(-c4ccccc4)cn(C(C)C)c3=O)ccc21`, which inhibition at 0.1 µM is on record?
A: ≥ 50%

Q: For `CCn1c(=O)cc(N2CCOCC2)c2cc(-n3c(-c4ccccc4)cn(CCN4CCCCC4)c3=O)ccc21`, which inhibition at 0.1 µM is on record?
A: ≥ 50%

Q: With `CCCCn1cc(-c2ccccc2)n(-c2ccc3c(c2)c(N2CCOCC2)cc(=O)n3CC)c1=O` as the compound, how does the inhibition at 0.1 µM read?
A: ≥ 50%

Q: `CCn1c(=O)cc(C2CCN(C)CC2)c2cc(C(=O)N(C)c3ccc4c(c3)CCC4)ccc21` was tested. Which inhibition at 0.1 µM did it give?
A: ≥ 50%

Q: For `CCn1c(=O)cc(N2CCOCC2)c2cc(-n3c(-c4ccccc4)cn(CCO)c3=O)ccc21`, which inhibition at 0.1 µM is on record?
A: ≥ 50%

Q: `CCCn1cc(-c2ccccc2)n(-c2ccc3c(c2)c(N2CCOCC2)cc(=O)n3CC)c1=O` was tested. Which inhibition at 0.1 µM did it give?
A: ≥ 50%

Q: For `CCn1c(=O)cc(C2CCN(C)CC2)c2cc(C(=O)N(C)c3ccc(C)c(Cl)c3)ccc21`, which inhibition at 0.1 µM is on record?
A: ≥ 50%

Q: How did the inhibition at 0.1 µM turn out when `CCn1c(=O)cc(C2CC2)c2cc(-n3c(-c4ccc(C)cc4)c[nH]c3=O)ccc21` was run?
A: ≥ 50%

Q: Which inhibition at 0.1 µM does the source give for `CCn1c(=O)cc(C2CC2)c2cc(N3C(=O)CC[C@H]3c3ccccc3)ccc21` here?
A: ≥ 50%

Q: `CCn1c(=O)cc(C2CC2)c2cc(N(C)C(=O)c3ccccc3)ccc21` was tested. Which inhibition at 0.1 µM did it give?
A: ≥ 50%

Q: `CCn1c(=O)cc(N2CCOCC2)c2cc(-n3c(-c4ccccc4)cn(CCN4CCOCC4)c3=O)ccc21` was tested. Which inhibition at 0.1 µM did it give?
A: ≥ 50%

Q: For `CCn1c(=O)cc(C2CC2)c2cc(-c3nc(C)nn3-c3ccccc3)ccc21`, which inhibition at 0.1 µM is on record?
A: ≥ 50%

Q: How did the inhibition at 0.1 µM turn out when `CCn1c(=O)cc(N2CCOCC2)c2cc(-n3c(-c4ccc(C(F)(F)F)cc4)cn(C)c3=O)ccc21` was run?
A: ≥ 50%

Q: `CCn1c(=O)cc(N2CCOCC2)c2cc(-c3ccccc3-c3ccccc3)ccc21` was tested. Which inhibition at 0.1 µM did it give?
A: ≥ 50%

Q: How did the inhibition at 0.1 µM turn out when `CCn1cc(-c2ccccc2)n(-c2ccc3c(c2)c(N2CCOCC2)cc(=O)n3CC)c1=O` was run?
A: ≥ 50%

Q: With `CCn1c(=O)cc(C2CCC(O)CC2)c2cc(C(=O)N(C)c3ccc(Cl)cc3)ccc21` (stereo unspecified) as the compound, how does the inhibition at 0.1 µM read?
A: ≥ 50%

Q: With `CCn1c(=O)cc(C2CC2)c2cc(-n3c(-c4ccc(C)cc4)cn(C)c3=O)ccc21` as the compound, how does the inhibition at 0.1 µM read?
A: ≥ 50%

Q: For `CCn1c(=O)cc(C2CC2)c2cc(-n3c(-c4ccc(C(F)(F)F)cc4)cn(C)c3=O)ccc21`, which inhibition at 0.1 µM is on record?
A: ≥ 50%

Q: Which inhibition at 0.1 µM does the source give for `CCn1c(=O)cc(C2CC2)c2cc(-n3c(-c4ccc(C(F)(F)F)cc4)c[nH]c3=O)ccc21` here?
A: ≥ 50%

Q: For `CCn1c(=O)cc(C2CC2)c2cc(-c3nc(C)[nH]c3-c3ccccc3)ccc21`, which inhibition at 0.1 µM is on record?
A: ≥ 50%

Q: `CCn1c(=O)cc(C(C)C)c2cc(N(C)C(=O)c3ccc(Cl)cc3)ccc21` was tested. Which inhibition at 0.1 µM did it give?
A: ≥ 50%

Q: `CCn1c(=O)cc(C2CC2)c2cc(-c3cccnc3-c3ccccc3)ccc21` was tested. Which inhibition at 0.1 µM did it give?
A: ≥ 50%

Q: Which inhibition at 0.1 µM does the source give for `CCn1c(=O)cc(C2CC2)c2cc(-n3c(-c4ccc(Cl)cc4)cn(C)c3=O)ccc21` here?
A: ≥ 50%

Q: For `CCn1c(=O)cc(N2CCOCC2)c2cc(-n3c(-c4ccc(Cl)cc4)cn(C)c3=O)ccc21`, which inhibition at 0.1 µM is on record?
A: ≥ 50%

Q: `CCn1c(=O)cc(N2CCOCC2)c2cc(-c3cccnc3-c3ccccc3)ccc21` was tested. Which inhibition at 0.1 µM did it give?
A: ≥ 50%

Q: `CCn1c(=O)cc(C2CCN(C)CC2)c2cc(C(=O)N(C)c3ccc(C)c(F)c3)ccc21` was tested. Which inhibition at 0.1 µM did it give?
A: ≥ 50%

Q: `CCN1CCC(c2cc(=O)n(CC)c3ccc(C(=O)N(C)c4ccccc4)cc23)CC1` was tested. Which inhibition at 0.1 µM did it give?
A: ≥ 50%

Q: How did the inhibition at 0.1 µM turn out when `CCn1c(=O)cc(N2CCOCC2)c2cc(N3C(=O)CC[C@H]3c3ccccc3)ccc21` was run?
A: ≥ 50%

Q: `CCn1c(=O)cc(C2CC2)c2cc(-n3c(C)cc(=O)n3-c3ccccc3)ccc21` was tested. Which inhibition at 0.1 µM did it give?
A: ≥ 50%

Q: Which inhibition at 0.1 µM does the source give for `CCn1c(=O)cc(N2CCOCC2)c2cc(-n3c(-c4ccc(C)cc4)c[nH]c3=O)ccc21` here?
A: ≥ 50%

Q: With `CCn1c(=O)cc(N2CCOCC2)c2cc(-n3c(-c4ccccc4)cn(CCN(C)C)c3=O)ccc21` as the compound, how does the inhibition at 0.1 µM read?
A: ≥ 50%

Q: `CCn1c(=O)cc(N2CCOCC2)c2cc(-c3nccn3-c3ccccc3)ccc21` was tested. Which inhibition at 0.1 µM did it give?
A: ≥ 50%

Q: `CCn1c(=O)cc(N2CCOCC2)c2cc(-n3cc(C)nc3-c3ccccc3)ccc21` was tested. Which inhibition at 0.1 µM did it give?
A: ≥ 50%

Q: `CCn1c(=O)cc(C2CCN(C)CC2)c2cc(C(=O)N(C)c3ccc(C)cc3)ccc21` was tested. Which inhibition at 0.1 µM did it give?
A: ≥ 50%

Q: Which inhibition at 0.1 µM does the source give for `CCn1c(=O)cc(C2CCN(C(C)=O)CC2)c2cc(C(=O)N(C)c3ccc(C)cc3)ccc21` here?
A: ≥ 50%

Q: Which inhibition at 0.1 µM does the source give for `CCn1c(=O)cc(C2CCN(C)CC2)c2cc(C(=O)N(C)c3ccc(C)c(C)c3)ccc21` here?
A: ≥ 50%

Q: `CCn1c(=O)cc(C2CC2)c2cc(N3C(=O)C(C)C(=O)N3c3ccccc3)ccc21` (stereo unspecified) was tested. Which inhibition at 0.1 µM did it give?
A: ≥ 50%

Q: `CCn1c(=O)cc(N2CCOCC2)c2cc(-n3c(-c4ccc(C(F)(F)F)cc4)c[nH]c3=O)ccc21` was tested. Which inhibition at 0.1 µM did it give?
A: ≥ 50%

Q: For `CCn1c(=O)cc(C2CC2)c2cc(-c3nccnc3-c3ccccc3)ccc21`, which inhibition at 0.1 µM is on record?
A: ≥ 50%

Q: Which inhibition at 0.1 µM does the source give for `CCn1c(=O)cc(N2CCOCC2)c2cc(-n3c(-c4ccccc4)c[nH]c3=O)ccc21` here?
A: ≥ 50%

Q: Which inhibition at 0.1 µM does the source give for `CCn1c(=O)cc(N2CCOCC2)c2cc(-n3c(-c4ccccc4)cn(CCOC)c3=O)ccc21` here?
A: ≥ 50%

Q: For `CCn1c(=O)cc(N2CCOCC2)c2cc(-n3c(-c4ccc(C)cc4)cn(C)c3=O)ccc21`, which inhibition at 0.1 µM is on record?
A: ≥ 50%

Q: Which inhibition at 0.1 µM does the source give for `CCn1c(=O)cc(N2CCOCC2)c2cc(-n3ccnc3-c3ccccc3)ccc21` here?
A: ≥ 50%

Q: With `CCn1c(=O)cc(C)c2cc(-c3cccnc3-c3ccccc3)ccc21` as the compound, how does the inhibition at 0.1 µM read?
A: ≥ 50%

Q: Which inhibition at 0.1 µM does the source give for `CCn1c(=O)cc(N2CCOCC2)c2cc(N(C)C(=O)c3ccc(Cl)cc3)ccc21` here?
A: ≥ 50%

Q: For `CCn1c(=O)cc(C2CCN(C)CC2)c2cc(C(=O)N3CCCc4ccccc43)ccc21`, which inhibition at 0.1 µM is on record?
A: ≥ 50%

Q: Which inhibition at 0.1 µM does the source give for `CCn1c(=O)cc(N2CCOCC2)c2cc(-n3c(-c4ccc(Cl)cc4)c[nH]c3=O)ccc21` here?
A: ≥ 50%

Q: Which inhibition at 0.1 µM does the source give for `CCn1c(=O)cc(C2CC2)c2cc(-n3c(=O)[nH]c(=O)n3-c3ccccc3)ccc21` here?
A: ≥ 50%

Q: How did the inhibition at 0.1 µM turn out when `CCC1C(=O)N(c2ccccc2)N(c2ccc3c(c2)c(C2CC2)cc(=O)n3CC)C1=O` (stereo unspecified) was run?
A: ≥ 50%

Q: `CCn1c(=O)cc(C2CC2)c2cc(-n3c(-c4ccc(Cl)cc4)c[nH]c3=O)ccc21` was tested. Which inhibition at 0.1 µM did it give?
A: ≥ 50%
